Literature values, collected in patent US20030013726A1 (priority 2000, published 2003).

Test system: patients with disorders of initiating sleep

## CCN(C(C)=O)c1cccc(-c2ccnc3c(C#N)cnn23)c1 [zaleplon]
Clinical studies
  sleep stages 3 and 4 (delta sleep and deep sleep): not impaired
Clinical study on more than 3 700 patients in the USA, Canada and Europe, including elderly people 65-85 years
  effectiveness for patients with disorders of initiating sleep: very effective
Compared with placebo, clinical studies
  sleep latency estimated both by polysomnography and subjectively: significantly reduced
